# Data from patent US20230127046A1, “G9a INHIBITOR” (RIKEN, priority 2019, published 2023).
# Biological target: T1, recombinant human G9a protein (Homo sapiens, UniProt Q96KQ7)
# T1 construct: purchased BPS Bioscience Inc. #51001
# T1 sequence (Q96KQ7 785-1210 limits assumed): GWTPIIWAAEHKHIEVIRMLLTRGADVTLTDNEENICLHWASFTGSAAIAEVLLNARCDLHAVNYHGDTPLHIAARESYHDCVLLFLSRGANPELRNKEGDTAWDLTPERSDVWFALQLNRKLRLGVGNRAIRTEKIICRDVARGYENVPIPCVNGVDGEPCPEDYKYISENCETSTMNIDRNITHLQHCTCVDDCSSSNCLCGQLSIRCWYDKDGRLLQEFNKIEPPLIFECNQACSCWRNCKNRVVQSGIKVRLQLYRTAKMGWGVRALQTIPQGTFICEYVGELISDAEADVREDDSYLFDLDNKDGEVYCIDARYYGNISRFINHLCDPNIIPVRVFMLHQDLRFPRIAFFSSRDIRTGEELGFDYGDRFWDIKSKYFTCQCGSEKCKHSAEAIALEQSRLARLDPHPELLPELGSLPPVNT
# Experiment: G9a inhibitory activity test (ALPHA)
# Assay type: biochemical
# Conditions: read-out: Inhibitory activity (G9a IC50)
# Procedure, shortened: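 Human G9a (0.05 to 0.1 nM) in Tris pH 9.0 buffer preincubated with compound 10 min, then biotinylated histone H3 (1-21) peptide and SAM mixed 1:1 from 500 nM and 150 μM solutions, 1 h at room temperature. H3K9me2 detected by AlphaLISA acceptor/streptavidin donor beads; IC50 from percent inhibition relative to no-compound and no-enzyme controls.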
row,SMILES,IC50
1,Cc1c(C(=O)NC(CCC2CC2)C(=O)Nc2ccc(Cl)nc2)[nH]c2c1C(=O)CC(C)(C)C2 (stereo not shown) [Example 6-7],≥ 200 nM
2,Cc1c(C(=O)NC(CCC2CC2)C(=O)Nc2ccc(C(F)(F)F)nc2)[nH]c2c1C(=O)CC(C)(C)C2 (stereo not shown) [Example 6-8],50 to 200 nM
3,Cc1c(C(=O)NC(CCC2CC2)C(=O)Nc2ccccn2)[nH]c2c1C(=O)CC(C)(C)C2 (stereo not shown) [Example 6-9],≥ 200 nM
4,CCc1c(C(=O)NC(CCC2CC2)C(=O)Nc2ccc(C)nc2)[nH]c2c1C(=O)CC(C)(C)C2 (stereo not shown) [Example 6-11],50 to 200 nM
5,Cc1c(C(=O)NC(CCC2CC2)C(=O)Nc2ccc(C#N)nc2)[nH]c2c1C(=O)CC(C)(C)C2 (stereo not shown) [Example 6-13],≥ 200 nM
6,Cc1cc(C)c(NC(=O)C(CCC2CC2)NC(=O)c2[nH]c3c(c2C)C(=O)CC(C)(C)C3)cn1 (stereo not shown) [Example 6-14],50 to 200 nM
7,CCc1cc(Br)ncc1NC(=O)C(CCC1CC1)NC(=O)c1[nH]c2c(c1C)C(=O)CC(C)(C)C2 (stereo not shown) [Example 6-15],< 50 nM
8,Cc1c(C(=O)NC(CCC2CC2)C(=O)Nc2cccnc2)[nH]c2c1C(=O)CC(C)(C)C2 (stereo not shown) [Example 6-16],≥ 200 nM
9,Cc1c(C(=O)NC(CCC2CC2)C(=O)N(C)Cc2ccc(CN(C)C)cc2)[nH]c2c1C(=O)CC(C)(C)C2 (stereo not shown) [Example 6-20],< 50 nM
10,CCCCC(NC(=O)c1[nH]c2c(c1C)C(=O)CC(C)(C)C2)C(=O)NCc1ccc(C(=O)OC)cc1 (stereo not shown) [Example 6-21],≥ 200 nM
11,CCCCC(NC(=O)c1[nH]c2c(c1C)C(=O)CC(C)(C)C2)C(=O)Nc1cnccc1CC (stereo not shown) [Example 6-22],50 to 200 nM
12,Cc1c(C(=O)N[C@@H](CCC2CC2)C(=O)NC2CCN(C)CC2)[nH]c2c1C(=O)CC(C)(C)C2 [Example 6-27],50 to 200 nM
13,Cc1c(C(=O)NC(C(=O)Nc2ccc(OC3CCN(C)CC3)nc2)c2ccc(Cl)cc2)[nH]c2c1C(=O)CC(C)(C)C2 (stereo not shown) [Example 6-29],≥ 200 nM
14,CCCC[C@H](NC(=O)c1[nH]c2c(c1CC)C(=O)CC(C)(C)C2)C(=O)Nc1ccccc1 [Example 6-35],50 to 200 nM
15,CCCC[C@H](NC(=O)c1[nH]c2c(c1CC)C(=O)CC(C)(C)C2)C(=O)N[C@@H](C)c1ccccc1 [Example 6-40],50 to 200 nM
16,CCCC[C@H](NC(=O)c1[nH]c2c(c1C(C)C)C(=O)CC(C)(C)C2)C(=O)N[C@@H](C)c1ccccc1 [Example 6-41],50 to 200 nM
17,CCCC[C@H](NC(=O)c1[nH]c2c(c1C)C(=O)CC1(CCCCC1)C2)C(=O)N[C@@H](C)c1ccccc1 [Example 6-43],≥ 200 nM
18,CCCC[C@H](NC(=O)c1[nH]c2c(c1C)C(=O)CC1(CCOCC1)C2)C(=O)N[C@@H](C)c1ccccc1 [Example 6-44],≥ 200 nM
19,CCCC[C@H](NC(=O)c1[nH]c2c(c1C)C(=O)CC(C)(C)C2)C(=O)NC(c1ccccc1)C(C)C (stereo partly shown) [Example 6-47],< 50 nM

row,SMILES,IC50
1,CCCC[C@H](NC(=O)c1[nH]c2c(c1C)C(=O)CC(C)(C)C2)C(=O)Nc1cccc(N2CCN(C)CC2)c1 [Example 6-48],≥ 200 nM
2,COc1ccc(NC(=O)C(CCC2CC2)NC(=O)c2ccc(-c3ccncc3)cc2C)cn1 (stereo not shown) [Example 6-50],≥ 200 nM
3,COc1ccc(NC(=O)C(CCC2CC2)NC(=O)Cc2cccc3ccccc23)cn1 (stereo not shown) [Example 6-53],≥ 200 nM
4,COc1ccc(NC(=O)C(CCC2CC2)NC(=O)c2ccc(Nc3ccncc3)nc2)cn1 (stereo not shown) [Example 6-56],≥ 200 nM
5,COc1ccc(NC(=O)C(CCC2CC2)NC(=O)c2ccc(-n3ccc4cnccc43)cc2)cn1 (stereo not shown) [Example 6-58],50 to 200 nM
6,COc1ccc(NC(=O)C(CCC2CC2)NC(=O)c2sc(-c3ccccc3)nc2C)cn1 (stereo not shown) [Example 6-61],≥ 200 nM
7,COc1ccc(NC(=O)C(CCC2CC2)NC(=O)c2ccc(Nc3ccnc(C)c3)cc2)cn1 (stereo not shown) [Example 6-63],< 50 nM
8,COc1ccc(NC(=O)C(CCC2CC2)NC(=O)c2ccc(Nc3ccnc(OC)c3)cc2)cn1 (stereo not shown) [Example 6-64],≥ 200 nM
9,COc1ccc(NC(=O)C(CCC2CC2)NC(=O)c2ccc(Nc3ccncc3C)cc2)cn1 (stereo not shown) [Example 6-65],< 50 nM
10,COc1ccc(NC(=O)C(CCC2CC2)NC(=O)c2ccc(C3=CCN(C)CC3)cc2)cn1 (stereo not shown) [Example 6-68],≥ 200 nM
11,COc1ccc(NC(=O)C(CCC2CC2)NC(=O)c2ccc(C3CCN(C)CC3)cc2)cn1 (stereo not shown) [Example 6-69],≥ 200 nM
12,COc1ccc(NC(=O)C(CCC2CC2)NC(=O)c2ccc(-n3ccc4cnccc43)cc2C)cn1 (stereo not shown) [Example 6-70],< 50 nM
13,COc1ccc(NC(=O)C(CCC2CC2)NC(=O)c2ccc(Nc3ccncc3C(F)(F)F)cc2)cn1 (stereo not shown) [Example 6-71],≥ 200 nM
14,COc1ccc(NC(=O)C(CCC2CC2)NC(=O)c2cccc(CCCN(C)C)c2)cn1 (stereo not shown) [Example 6-75],≥ 200 nM
15,COc1ccc(NC(=O)C(CCC2CC2)NC(=O)c2ccc(Nc3ccncc3)cn2)cn1 (stereo not shown) [Example 6-76],≥ 200 nM
16,CCOc1ccc(NC(=O)C(CCC2CC2)NC(=O)c2ccc(Nc3ccncc3)cc2)cn1 (stereo not shown) [Example 6-80],< 50 nM
17,O=C(NC(CCC1CC1)C(=O)Nc1ccc(C(F)(F)F)nc1)c1ccc(Nc2ccncc2)cc1 (stereo not shown) [Example 6-81],< 50 nM
18,Cc1cc(Nc2ccncc2)ccc1C(=O)NC(CCC1CC1)C(=O)Nc1ccc(C#N)nc1 (stereo not shown) [Example 6-84],< 50 nM

# The next lines start with the values.
row,IC50,SMILES
1,50 to 200 nM,CCc1ncccc1NC(=O)C(CCC1CC1)NC(=O)c1[nH]c2c(c1C)C(=O)CC(C)(C)C2 (stereo not shown) [Example 6-6]
2,50 to 200 nM,Cc1c(C(=O)NC(CCC2CC2)C(=O)Nc2ccc(F)nc2)[nH]c2c1C(=O)CC(C)(C)C2 (stereo not shown) [Example 6-12]
3,50 to 200 nM,Cc1c(C(=O)NC(CCC2CC2)C(=O)NCc2ccccc2)[nH]c2c1C(=O)CC(C)(C)C2 (stereo not shown) [Example 6-18]
4,≥ 200 nM,Cc1c(C(=O)NC(CCC2CC2)C(=O)N(C)Cc2ccccc2)[nH]c2c1C(=O)CC(C)(C)C2 (stereo not shown) [Example 6-19]
5,≥ 200 nM,CCCCC(NC(=O)c1[nH]c2c(c1C)C(=O)CC(C)(C)C2)C(=O)Nc1cccnc1CC (stereo not shown) [Example 6-23]
6,≥ 200 nM,Cc1c(C(=O)NC(CCC2CCC2)C(=O)Nc2ccccc2)[nH]c2c1C(=O)CC(C)(C)C2 (stereo not shown) [Example 6-24]
7,≥ 200 nM,Cc1c(C(=O)NC(CCC(C)C)C(=O)Nc2ccccc2)[nH]c2c1C(=O)CC(C)(C)C2 (stereo not shown) [Example 6-25]
8,≥ 200 nM,Cc1c(C(=O)NC(C(=O)Nc2ccc(OC3CCN(C)CC3)nc2)c2ccccc2Cl)[nH]c2c1C(=O)CC(C)(C)C2 (stereo not shown) [Example 6-28]
9,< 50 nM,CCCC[C@H](NC(=O)c1[nH]c2c(c1C)C(=O)CC(C)(C)C2)C(=O)Nc1ccc(OC2CCN(C)CC2)nc1 [Example 6-31]
10,50 to 200 nM,CCCC[C@H](NC(=O)c1[nH]c2c(c1C(C)C)C(=O)CC(C)(C)C2)C(=O)Nc1ccccc1 [Example 6-36]
11,≥ 200 nM,CCCC[C@H](NC(=O)c1[nH]c2c(c1CCC)C(=O)CC(C)(C)C2)C(=O)Nc1ccccc1 [Example 6-37]
12,< 50 nM,CCCC[C@H](NC(=O)c1[nH]c2c(c1C)C(=O)CC(C)(C)C2)C(=O)N[C@@H](CC)c1ccccc1 [Example 6-38]
13,50 to 200 nM,CCCC[C@H](NC(=O)c1[nH]c2c(c1CC)C(=O)CC(C)(C)C2)C(=O)N[C@@H](CC)c1ccccc1 [Example 6-39]
14,50 to 200 nM,CCCC[C@H](NC(=O)c1[nH]c2c(c1CCC)C(=O)CC(C)(C)C2)C(=O)N[C@@H](C)c1ccccc1 [Example 6-42]
15,50 to 200 nM,CCCC[C@H](NC(=O)c1[nH]c2c(c1C)C(=O)CC(C)(C)C2)C(=O)N[C@@H](CO)c1ccccc1 [Example 6-45]
16,50 to 200 nM,CCCC[C@H](NC(=O)c1[nH]c2c(c1CC)C(=O)CC(C)(C)C2)C(=O)N[C@@H](CO)c1ccccc1 [Example 6-46]
17,≥ 200 nM,COc1ccc(NC(=O)C(CCC2CC2)NC(=O)c2nc(-c3ccccc3)sc2C)cn1 (stereo not shown) [Example 6-54]
18,< 50 nM,COc1ccc(NC(=O)C(CCC2CC2)NC(=O)c2ccc(Nc3ccncc3)c(C)c2)cn1 (stereo not shown) [Example 6-57]
19,≥ 200 nM,COc1ccc(NC(=O)C(CCC2CC2)NC(=O)c2ccc(NC3CCN(C)CC3)cc2)cn1 (stereo not shown) [Example 6-59]
20,≥ 200 nM,COc1ccc(NC(=O)C(CCC2CC2)NC(=O)c2sc(-c3cccnc3)nc2C(F)(F)F)cn1 (stereo not shown) [Example 6-60]
21,≥ 200 nM,COc1ccc(NC(=O)C(CCC2CC2)NC(=O)c2ccc(NCCN(C)C)cc2)cn1 (stereo not shown) [Example 6-66]
22,≥ 200 nM,COc1ccc(NC(=O)C(CCC2CC2)NC(=O)c2ccc(OCCN(C)C)cc2)cn1 (stereo not shown) [Example 6-67]
23,≥ 200 nM,COc1ccc(NC(=O)C(CCC2CC2)NC(=O)c2ccc(OCCCN(C)C)cc2)cn1 (stereo not shown) [Example 6-72]
24,≥ 200 nM,COc1ccc(NC(=O)C(CCC2CC2)NC(=O)c2ccc(CCN(C)C)cc2)cn1 (stereo not shown) [Example 6-73]
25,50 to 200 nM,COc1ccc(NC(=O)C(CCC2CC2)NC(=O)c2ccc(CCCN(C)C)cc2)cn1 (stereo not shown) [Example 6-74]
26,< 50 nM,COc1ccc(NC(=O)C(CCC2CC2)NC(=O)c2ccc(Nc3ccncc3)cc2Cl)cn1 (stereo not shown) [Example 6-77]
27,< 50 nM,COc1ccc(NC(=O)C(CCC2CC2)NC(=O)c2ccc(Nc3ccncc3)cc2C(F)(F)F)cn1 (stereo not shown) [Example 6-78]
28,< 50 nM,COc1ccc(NC(=O)C(CCC2CC2)NC(=O)c2ccc(Nc3ccncc3)cc2OC)cn1 (stereo not shown) [Example 6-79]
29,< 50 nM,N#Cc1ccc(NC(=O)C(CCC2CC2)NC(=O)c2ccc(Nc3ccncc3)cc2)cn1 (stereo not shown) [Example 6-82]
30,50 to 200 nM,Cc1cc(-n2ccc3cnccc32)ccc1C(=O)NC(CCC1CC1)C(=O)Nc1ccc(C#N)nc1 (stereo not shown) [Example 6-83]
